The results in this text go back to paper PMC8429249 (Journal of medicinal chemistry, 2021).

One may read the EC50 as the concentration at which the effect is half-maximal.

The subject of assay [1] is H358 cells. Nature of the assay: MTT cell viability assay. It counts as cell-based, human. Particulars: read-out: MTT EC50, 96 h, 10% FBS, mean ± SD.
The target of assay [2] is RLuc8-KRasG12V / GFP-CRAF RBD interaction in HEK293T cells (Homo sapiens, UniProt P01116, G12V). Nature of the assay: Intracellular Ras-Raf BRET2 assay. It is filed as cell-based. Particulars: 0–15 μM, 20 h. For orientation: Bioluminescence resonance energy transfer reports proximity on the nanometre scale.
Assay [3] addresses RLuc8-KRasG12D / GFP-CRAF RBD interaction in HEK293T cells (Homo sapiens, UniProt P01116, G12D). Nature of the assay: Intracellular Ras-Raf BRET2 assay. It is filed as cell-based. Particulars: 0–15 μM, 20 h.
In assay [4] the test system is H358 cells. The following applies: read-out: CellTiter-Glo EC50, 96 h, 10% FBS, mean ± SD. In general terms: ATP-based viability assays read luminescence as a measure of living cells.

Read-outs that look alike come from different tables or passages of the source.

ΦOSQΦΠ-K-fArR-J-BBK-NH2 [Peptide B3-4]: the EC50 in the assay with H358 cells [1] was found to be 29 ± 6 µM; in the assay with H358 cells [4], 22 ± 4 µM. For the same substance, in assay [2], the “effect on BRET signal (KRasG12V-CRAF RBD)” value was “did not decrease the BRET signal”. Further, the “effect on BRET signal (KRasG12D-CRAF RBD)” value in assay [3] is given as “did not decrease the BRET signal”.
